Data on 22 compounds can be found in patent US12473304B2, “Heterocyclic PAD4 inhibitors” (BRISTOL-MYERS SQUIBB COMPANY, priority 2020, dated 2025).

human PAD4 (hPAD4), sequence (Q9UM07 whole entry): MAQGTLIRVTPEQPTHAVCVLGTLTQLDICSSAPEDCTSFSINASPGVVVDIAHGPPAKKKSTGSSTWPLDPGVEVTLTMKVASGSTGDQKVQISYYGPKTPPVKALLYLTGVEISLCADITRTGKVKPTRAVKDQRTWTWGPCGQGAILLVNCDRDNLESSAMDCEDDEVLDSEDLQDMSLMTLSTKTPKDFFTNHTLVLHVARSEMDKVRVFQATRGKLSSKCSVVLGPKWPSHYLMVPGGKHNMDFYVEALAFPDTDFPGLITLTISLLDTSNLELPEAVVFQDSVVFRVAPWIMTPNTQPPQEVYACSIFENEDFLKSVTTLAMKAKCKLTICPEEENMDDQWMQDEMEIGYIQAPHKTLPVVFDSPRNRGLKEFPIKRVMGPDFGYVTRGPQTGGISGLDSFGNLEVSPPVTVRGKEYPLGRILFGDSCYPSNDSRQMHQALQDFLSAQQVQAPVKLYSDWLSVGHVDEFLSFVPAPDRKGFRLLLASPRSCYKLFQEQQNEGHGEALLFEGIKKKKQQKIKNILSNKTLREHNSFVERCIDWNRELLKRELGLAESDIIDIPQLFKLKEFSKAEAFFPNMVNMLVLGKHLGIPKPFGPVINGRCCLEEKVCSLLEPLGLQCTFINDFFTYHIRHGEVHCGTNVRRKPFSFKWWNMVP

This assay addresses human PAD4 (hPAD4) (Homo sapiens (Human), UniProt Q9UM07). In words: RFMS Human PAD4 Functional Assay 1. It is filed as biochemical. The following applies: RFMS assay 1; 5 nM hPAD4, 250 μM BAEE substrate, 50 μM calcium, 37° C. Summed up:
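Recombinant hPAD4 (5 nM) was preincubated with compound (top 50 μM, 0.5% DMSO) for 30 min at 37 °C, then reacted with 250 μM BAEE for 90 min at 37 °C in pH 7.5 HEPES buffer with 50 μM calcium and 5 μM TPEN. Product was derivatized with phenyl glyoxal and quantified by RapidFire MS.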
For `COc1cc(C(=O)N2CCC[C@@H](N)C2)cn2nc(-c3cc4ccc(N5CCC(N(C)S(C)(=O)=O)CC5)cc4n3CC3CC3)c(C)c12` [Example 254, N-[1-(2-{6-[(3R)-3-Aminopiperidine-1-carbonyl]-4-methoxy-3-methylpyrazolo[1,5-a]pyridin-2-yl}-1-(cyclopropylmethyl)-1H-indol-6-yl)piperidin-4-yl]-N-methylmethanesulfonamide], the IC50 stood at 320 nM. Regarding `Cc1c(-c2cc3ccc(C(C)(C)O)nc3n2CC2CC2)nn2cc(C(=O)N3C[C@H](N)C[C@@H](F)C3)ccc12` [Example 105, ((3R,5R)-3-Amino-5-fluoropiperidin-1-yl)(2-(1-(cyclopropylmethyl)-6-(2-hydroxypropan-2-yl)-1H-pyrrolo[2,3-b]pyridin-2-yl)-3-methylpyrazolo[1,5-a]pyridin-6-yl)methanone], the IC50 was 107 nM. Consider `Cc1c(-c2cc3ccc(N4CCNCC4)cc3n2CC2CC2)oc2cc(C(=O)N3CC4CCC3[C@@H]4N)ccc12` (stereo partly drawn) [Example 192, ((7R)-7-Amino-2-azabicyclo[2.2.1]heptan-2-yl)(2-(1-(cyclopropylmethyl)-6-(piperazin-1-yl)-1H-indol-2-yl)-3-methylbenzofuran-6-yl)methanone], for which the IC50 was found to be 93 nM. Take `COc1cc(C(=O)N2CC3CCC2[C@@H]3N)cc2oc(-c3cc4ccc(C(C)(C)O)nc4n3CC3CC3)c(C)c12` (stereo partly drawn) [Example 203, ((7R)-7-Amino-2-azabicyclo[2.2.1]heptan-2-yl)(2-(1-(cyclopropylmethyl)-6-(2-hydroxypropan-2-yl)-1H-pyrrolo[2,3-b]pyridin-2-yl)-4-methoxy-3-methylbenzofuran-6-yl)methanone]: the IC50 came to 12 nM. In the case of `Cc1c(-c2cc3ccc(-c4ccc(N5CCCC5=O)cc4)nc3n2CC2CC2)nn2cc(C(=O)N3CC4CCC3[C@@H]4N)ccc12` (stereo partly drawn) [Example 304, 1-[4-(2-{6-[(7R)-7-Amino-2-azabicyclo[2.2.1]heptane-2-carbonyl]-3-methylpyrazolo[1,5-a]pyridin-2-yl}-1-(cyclopropylmethyl)-1H-pyrrolo[2,3-b]pyridin-6-yl)phenyl]pyrrolidin-2-one], the IC50 was found to be 10 nM. For the compound `COc1cc(C(=O)N2CCC[C@@H](N)C2)cn2nc(-c3cc4cccc(C5CCN(C(=O)[C@H]6CC[C@@H](O)CC6)CC5)c4n3CC3CC3)c(C)c12` [Example 406, ((R)-3-Aminopiperidin-1-yl)(2-(1-(cyclopropylmethyl)-7-(1-((1s,4s)-4-hydroxycyclohexane-1-carbonyl)piperidin-4-yl)-1H-indol-2-yl)-4-methoxy-3-methylpyrazolo[1,5-a]pyridin-6-yl)methanone], the IC50 turned out to be 90 nM.

Regarding `COc1cc(C(=O)N2C[C@H](N)C[C@@H](F)C2)cn2nc(-c3cc4ccc(N5CC(N(C)S(C)(=O)=O)C5)cc4n3CC3CC3)c(C)c12` [Example 247, N-[1-(2-{6-[(3R,5R)-3-Amino-5-fluoropiperidine-1-carbonyl]-4-methoxy-3-methylpyrazolo[1,5-a]pyridin-2-yl}-1-(cyclopropylmethyl)-1H-indol-6-yl)azetidin-3-yl]-N-methylmethanesulfonamide], the IC50 was found to be 120 nM. Turning to `Cc1c(-c2cc3cccc(C4CN(C(=O)[C@H]5CC[C@H](O)CC5)C4)c3n2CC2CC2)nn2cc(C(=O)N3C[C@H](N)C[C@@H](F)C3)ccc12` [Example 537, ((3R,5R)-3-Amino-5-fluoropiperidin-1-yl)(2-(1-(cyclopropylmethyl)-7-(1-((1r,4r)-4-hydroxycyclohexane-1-carbonyl)azetidin-3-yl)-1H-indol-2-yl)-3-methylpyrazolo[1,5-a]pyridin-6-yl)methanone], the IC50 was determined as 70 nM. `Cc1c(-c2cc3cccc(OC[C@H]4CCC(=O)N4)c3n2CC2CC2)nn2cc(C(=O)N3CCC[C@@H](N)C3)cc(F)c12` [Example 570, (R)-5-(((2-(6-((R)-3-Aminopiperidine-1-carbonyl)-4-fluoro-3-methylpyrazolo[1,5-a]pyridin-2-yl)-1-(cyclopropylmethyl)-1H-indol-7-yl)oxy)methyl)pyrrolidin-2-one]: the IC50 is 180 nM. Then `Cc1c(-c2cc3cc(F)cc(C4CCN(C(=O)[C@H]5CC[C@H](O)CC5)CC4)c3n2CC2CC2)nn2cc(C(=O)N3CCC[C@@H](N)C3)ccc12` [Example 484, ((R)-3-Aminopiperidin-1-yl)(2-(1-(cyclopropylmethyl)-5-fluoro-7-(1-((1r,4r)-4-hydroxycyclohexane-1-carbonyl)piperidin-4-yl)-1H-indol-2-yl)-3-methylpyrazolo[1,5-a]pyridin-6-yl)methanone], with 150 nM; and `COc1cc(-c2ccc3cc(-c4nn5cc(C(=O)N6CC7CCC6[C@@H]7N)ccc5c4C)n(CC4CC4)c3n2)c(F)cn1` (stereo partly drawn) [Example 72, ((7R)-7-Amino-2-azabicyclo[2.2.1]heptan-2-yl)(2-(1-(cyclopropylmethyl)-6-(5-fluoro-2-methoxypyridin-4-yl)-1H-pyrrolo[2,3-b]pyridin-2-yl)-3-methylpyrazolo[1,5-a]pyridin-6-yl)methanone], with 67 nM.

`COC1CN(c2ccc3cc(-c4nn5cc(C(=O)N6CC7CCC6[C@@H]7N)ccc5c4C)n(CC4CC4)c3n2)C1` (stereo partly drawn) [Example 79, ((7R)-7-Amino-2-azabicyclo[2.2.1]heptan-2-yl)(2-(1-(cyclopropylmethyl)-6-(3-methoxyazetidin-1-yl)-1H-pyrrolo[2,3-b]pyridin-2-yl)-3-methylpyrazolo[1,5-a]pyridin-6-yl)methanone]: the IC50 stood at 212 nM. In the case of `Cc1c(-c2cc3ccc(-c4ccccc4C(N)=O)cc3n2CC2CC2)nn2cc(C(=O)N3C[C@H](N)C[C@@H](F)C3)ccc12` [Example 372, 2-(2-{6-[(3R,5R)-3-Amino-5-fluoropiperidine-1-carbonyl]-3-methylpyrazolo[1,5-a]pyridin-2-yl}-1-(cyclopropylmethyl)-1H-indol-6-yl)benzamide], the IC50 was 190 nM. Take `Cc1c(-c2cc3ccc(-c4ccc(OC(F)F)c(F)c4)nc3n2CC2CC2)nn2cc(C(=O)N3CC4CCC3[C@@H]4N)cc(F)c12` (stereo partly drawn) [Example 44, ((7R)-7-Amino-2-azabicyclo[2.2.1]heptan-2-yl)(2-(1-(cyclopropylmethyl)-6-(4-(difluoromethoxy)-3-fluorophenyl)-1H-pyrrolo[2,3-b]pyridin-2-yl)-4-fluoro-3-methylpyrazolo[1,5-a]pyridin-6-yl)methanone]: the IC50 was found to be 1480 nM. Then `Cc1c(-c2cc3ccc(N4CCC(S(C)(=O)=O)CC4)nc3n2CC2CC2)nn2cc(C(=O)N3CCC[C@@H](N)C3)cc(F)c12` [Example 270, (3R)-1-{2-[1-(Cyclopropylmethyl)-6-(4-methanesulfonylpiperidin-1-yl)-1H-pyrrolo[2,3-b]pyridin-2-yl]-4-fluoro-3-methylpyrazolo[1,5-a]pyridine-6-carbonyl}piperidin-3-amine], with 2110 nM. Regarding `Cc1c(-c2cc3ccc(Cl)nc3n2CC2CC2)nn2cc(C(=O)N3CC4CCC3[C@@H]4N)cnc12` (stereo partly drawn) [Example 108, ((7R)-7-Amino-2-azabicyclo[2.2.1]heptan-2-yl)(2-(6-chloro-1-(cyclopropylmethyl)-1H-pyrrolo[2,3-b]pyridin-2-yl)-3-methylpyrazolo[1,5-a]pyrimidin-6-yl)methanone], the IC50 was 907 nM.

For `COc1cc(C(=O)N2CC3CCC2[C@@H]3N)cc2oc(-c3cc4ccc(-c5ccc(C(N)=O)c(Cl)c5)cc4n3CC3CC3)c(C)c12` (stereo partly drawn) [Example 153, 4-(2-(6-((7R)-7-Amino-2-azabicyclo[2.2.1]heptane-2-carbonyl)-4-methoxy-3-methylbenzofuran-2-yl)-1-(cyclopropylmethyl)-1H-indol-6-yl)-2-chlorobenzamide], the 50% inhibitory concentration (IC50) is 628 nM. Then `COc1cc(C(=O)N2C[C@H](N)C[C@@H](F)C2)cn2nc(-c3cc4ccc(N5CCC(C(=O)N(C)C)CC5)cc4n3CC3CC3)c(C)c12` [Example 242, 1-(2-{6-[(3R,5R)-3-Amino-5-fluoropiperidine-1-carbonyl]-4-methoxy-3-methylpyrazolo[1,5-a]pyridin-2-yl}-1-(cyclopropylmethyl)-1H-indol-6-yl)-N,N-dimethylpiperidine-4-carboxamide], with 90 nM. Regarding `COc1cc(C(=O)N2C[C@H](N)C[C@@H](F)C2)cn2nc(-c3cc4cccc(C5CN(C(=O)[C@H](C)OC)C5)c4n3CC3CC3)c(C)c12` [Example 524, (S)-1-(3-(2-(6-((3R,5R)-3-Amino-5-fluoropiperidine-1-carbonyl)-4-methoxy-3-methylpyrazolo[1,5-a]pyridin-2-yl)-1-(cyclopropylmethyl)-1H-indol-7-yl)azetidin-1-yl)-2-methoxypropan-1-one], the IC50 worked out at 280 nM. `COc1cc(C(=O)N2CC3CCC2[C@@H]3N)cc2oc(-c3cc4ccc(N5CCC(OC)CC5)cc4n3CC3CC3)c(C)c12` (stereo partly drawn) [Example 159, ((7R)-7-Amino-2-azabicyclo[2.2.1]heptan-2-yl)(2-(1-(cyclopropylmethyl)-6-(4-methoxypiperidin-1-yl)-1H-indol-2-yl)-4-methoxy-3-methylbenzofuran-6-yl)methanone]: the IC50 stood at 1210 nM. For the compound `Cc1c(-c2cc3ccc(C4CC4)cc3n2CC2CC2)oc2cc(C(=O)N3CC4CCC3[C@@H]4N)ccc12` (stereo partly drawn) [Example 187, ((7R)-7-Amino-2-azabicyclo[2.2.1]heptan-2-yl)(2-(6-cyclopropyl-1-(cyclopropylmethyl)-1H-indol-2-yl)-3-methylbenzofuran-6-yl)methanone], the IC50 came to 1550 nM.

As for `Cc1c(-c2cc3ccc(-c4ccc(F)c5[nH]ncc45)cc3n2CC2CC2)nn2cc(C(=O)N3CC4CCC3[C@@H]4N)ccc12` (stereo partly drawn) [Example 326, (7R)-2-{2-[1-(Cyclopropylmethyl)-6-(7-fluoro-1H-indazol-4-yl)-1H-indol-2-yl]-3-methylpyrazolo[1,5-a]pyridine-6-carbonyl}-2-azabicyclo[2.2.1]heptan-7-amine], the IC50 was found to be 200 nM.

By IC50 is commonly meant the midpoint of a concentration-inhibition curve.
